Reference: the kinase profiling compilation of Christmann-Franck et al. (2016)

Key:
Test in all cases: KINOMEscan competition binding
Conditions in all cases: compound 10.0 µM
PRKCE (human) = PRKCE (human) (UniProt Q02156)
EIF2AK1 (human) = EIF2AK1 (human) (UniProt Q9BQI3)
AURKB (human) = AURKB (human) (UniProt Q96GD4)
SGK3 (human) = SGK3 (human) (UniProt Q96BR1)
[1] = biological target: JAK1 JH1 catalytic (human) (UniProt P23458)
PIM1 (human) = PIM1 (human) (UniProt P11309)
PRKCH (human) = PRKCH (human) (UniProt P24723)
Sequence of PRKCH (human) (P24723 whole entry, looked up): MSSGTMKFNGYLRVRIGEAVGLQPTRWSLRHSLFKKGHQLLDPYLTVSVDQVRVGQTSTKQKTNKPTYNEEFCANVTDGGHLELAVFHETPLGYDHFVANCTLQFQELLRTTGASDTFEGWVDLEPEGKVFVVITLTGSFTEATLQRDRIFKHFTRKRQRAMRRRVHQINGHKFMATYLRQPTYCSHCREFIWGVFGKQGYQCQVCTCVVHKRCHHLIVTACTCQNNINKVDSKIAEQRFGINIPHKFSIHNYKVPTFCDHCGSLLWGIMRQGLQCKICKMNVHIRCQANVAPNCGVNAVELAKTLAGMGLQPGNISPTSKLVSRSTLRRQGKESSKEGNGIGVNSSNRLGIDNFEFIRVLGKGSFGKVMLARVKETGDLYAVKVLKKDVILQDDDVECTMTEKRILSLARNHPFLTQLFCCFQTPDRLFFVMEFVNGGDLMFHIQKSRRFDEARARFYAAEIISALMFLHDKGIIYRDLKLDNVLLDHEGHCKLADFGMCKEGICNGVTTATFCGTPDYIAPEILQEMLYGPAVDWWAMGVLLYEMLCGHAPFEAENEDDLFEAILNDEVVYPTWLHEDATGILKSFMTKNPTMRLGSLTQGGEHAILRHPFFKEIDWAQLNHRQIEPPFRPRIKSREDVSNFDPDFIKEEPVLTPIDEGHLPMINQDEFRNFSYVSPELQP

FLT3 (human) = FLT3 (human) (UniProt P36888)
GSK3B (human) = GSK3B (human) (UniProt P49841)
Sequence of GSK3B (human) (P49841 whole entry, looked up): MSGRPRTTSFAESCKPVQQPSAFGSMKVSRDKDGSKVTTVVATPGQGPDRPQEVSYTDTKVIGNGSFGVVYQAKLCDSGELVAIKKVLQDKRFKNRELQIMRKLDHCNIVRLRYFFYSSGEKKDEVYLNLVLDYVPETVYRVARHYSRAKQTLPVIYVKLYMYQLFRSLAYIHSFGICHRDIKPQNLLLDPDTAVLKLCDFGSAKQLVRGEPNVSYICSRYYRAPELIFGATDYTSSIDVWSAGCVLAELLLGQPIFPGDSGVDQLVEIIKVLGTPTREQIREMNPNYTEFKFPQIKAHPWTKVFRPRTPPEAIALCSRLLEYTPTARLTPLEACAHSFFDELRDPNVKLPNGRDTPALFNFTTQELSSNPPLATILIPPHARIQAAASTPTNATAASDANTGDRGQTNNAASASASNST

MAP3K5 (human) = MAP3K5 (human) (UniProt Q99683)
RPS6KA2 KD1 (human) = RPS6KA2 KD1 (human) (UniProt Q15349)
Sequence of RPS6KA2 KD1 (human) (Q15349 whole entry, looked up): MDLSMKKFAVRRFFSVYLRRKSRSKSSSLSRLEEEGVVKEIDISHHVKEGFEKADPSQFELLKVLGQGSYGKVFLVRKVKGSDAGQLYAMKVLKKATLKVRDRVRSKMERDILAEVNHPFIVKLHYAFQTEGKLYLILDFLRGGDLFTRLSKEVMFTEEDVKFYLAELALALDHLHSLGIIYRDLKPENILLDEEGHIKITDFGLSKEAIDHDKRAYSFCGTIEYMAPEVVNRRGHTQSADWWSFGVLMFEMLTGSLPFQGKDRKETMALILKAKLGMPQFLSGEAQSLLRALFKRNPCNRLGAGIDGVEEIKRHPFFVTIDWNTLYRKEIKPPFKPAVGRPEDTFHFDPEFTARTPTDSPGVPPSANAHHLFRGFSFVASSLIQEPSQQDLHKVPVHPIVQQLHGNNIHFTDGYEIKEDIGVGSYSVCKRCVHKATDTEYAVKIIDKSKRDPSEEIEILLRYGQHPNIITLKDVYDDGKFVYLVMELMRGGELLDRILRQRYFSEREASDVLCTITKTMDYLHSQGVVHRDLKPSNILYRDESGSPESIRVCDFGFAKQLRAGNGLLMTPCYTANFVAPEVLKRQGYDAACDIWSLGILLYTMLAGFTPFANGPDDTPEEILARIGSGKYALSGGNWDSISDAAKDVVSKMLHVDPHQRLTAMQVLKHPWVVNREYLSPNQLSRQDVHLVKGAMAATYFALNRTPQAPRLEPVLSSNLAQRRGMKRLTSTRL

[2] = system: FLT3 (human), P36888 [R834Q]
LATS2 (human) = LATS2 (human) (UniProt Q9NRM7)
CHUK (human) = CHUK (human) (UniProt O15111)
CDK5 (human) = CDK5 (human) (UniProt Q00535)
Sequence of CDK5 (human) (Q00535 whole entry, looked up): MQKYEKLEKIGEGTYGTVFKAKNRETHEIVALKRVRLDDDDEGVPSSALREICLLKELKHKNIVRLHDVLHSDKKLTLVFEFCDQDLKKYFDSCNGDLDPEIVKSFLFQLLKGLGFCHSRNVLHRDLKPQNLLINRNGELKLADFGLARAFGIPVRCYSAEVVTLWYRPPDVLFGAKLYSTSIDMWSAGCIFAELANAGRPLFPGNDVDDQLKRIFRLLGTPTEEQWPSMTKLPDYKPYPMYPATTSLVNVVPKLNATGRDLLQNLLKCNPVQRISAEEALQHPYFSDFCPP

PAK4 (human) = PAK4 (human) (UniProt O96013)
ALK (human) = ALK (human) (UniProt Q9UM73)
ACVR1 (human) = ACVR1 (human) (UniProt Q04771)
TNIK (human) = TNIK (human) (UniProt Q9UKE5)
DYRK1A (human) = DYRK1A (human) (UniProt Q13627)
ERBB3 (human) = ERBB3 (human) (UniProt P21860)
DMPK (human) = DMPK (human) (UniProt Q09013)
FGFR1 (human) = FGFR1 (human) (UniProt P11362)
PAK3 (human) = PAK3 (human) (UniProt O75914)
HIPK3 (human) = HIPK3 (human) (UniProt Q9H422)
Sequence of HIPK3 (human) (Q9H422 whole entry, looked up): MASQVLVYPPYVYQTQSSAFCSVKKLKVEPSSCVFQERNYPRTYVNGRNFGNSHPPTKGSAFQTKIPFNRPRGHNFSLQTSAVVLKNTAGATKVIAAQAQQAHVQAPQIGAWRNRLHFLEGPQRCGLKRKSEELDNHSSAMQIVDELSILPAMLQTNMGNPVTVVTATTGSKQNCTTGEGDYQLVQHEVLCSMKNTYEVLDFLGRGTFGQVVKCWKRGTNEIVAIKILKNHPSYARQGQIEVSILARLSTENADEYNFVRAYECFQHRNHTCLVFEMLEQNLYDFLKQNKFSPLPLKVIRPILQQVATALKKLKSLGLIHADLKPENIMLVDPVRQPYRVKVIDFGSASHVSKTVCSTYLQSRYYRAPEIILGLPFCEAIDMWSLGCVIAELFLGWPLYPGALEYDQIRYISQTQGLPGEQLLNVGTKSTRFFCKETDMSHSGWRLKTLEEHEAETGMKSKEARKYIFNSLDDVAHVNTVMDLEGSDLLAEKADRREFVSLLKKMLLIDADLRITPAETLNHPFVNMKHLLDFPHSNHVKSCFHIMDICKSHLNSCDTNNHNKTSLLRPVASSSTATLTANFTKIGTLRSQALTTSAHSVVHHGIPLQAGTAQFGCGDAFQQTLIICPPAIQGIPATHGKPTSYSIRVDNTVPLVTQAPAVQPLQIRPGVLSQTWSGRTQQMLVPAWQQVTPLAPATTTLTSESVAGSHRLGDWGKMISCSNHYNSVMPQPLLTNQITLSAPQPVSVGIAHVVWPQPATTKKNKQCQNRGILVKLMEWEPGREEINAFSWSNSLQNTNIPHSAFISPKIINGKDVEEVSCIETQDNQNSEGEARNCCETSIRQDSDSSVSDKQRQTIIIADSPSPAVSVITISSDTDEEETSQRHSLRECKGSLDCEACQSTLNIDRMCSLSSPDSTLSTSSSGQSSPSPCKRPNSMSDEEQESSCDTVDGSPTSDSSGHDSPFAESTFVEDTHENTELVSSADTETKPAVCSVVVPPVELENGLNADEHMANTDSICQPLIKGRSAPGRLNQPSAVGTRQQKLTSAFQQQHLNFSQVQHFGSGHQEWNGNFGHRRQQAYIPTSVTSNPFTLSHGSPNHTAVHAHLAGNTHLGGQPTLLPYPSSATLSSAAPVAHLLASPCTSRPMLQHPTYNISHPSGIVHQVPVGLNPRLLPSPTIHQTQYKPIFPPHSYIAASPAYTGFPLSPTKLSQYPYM

NUAK1 (human) = NUAK1 (human) (UniProt O60285)
PLK3 (human) = PLK3 (human) (UniProt Q9H4B4)
PRKD3 (human) = PRKD3 (human) (UniProt O94806)
Sequence of PRKD3 (human) (O94806 whole entry, looked up): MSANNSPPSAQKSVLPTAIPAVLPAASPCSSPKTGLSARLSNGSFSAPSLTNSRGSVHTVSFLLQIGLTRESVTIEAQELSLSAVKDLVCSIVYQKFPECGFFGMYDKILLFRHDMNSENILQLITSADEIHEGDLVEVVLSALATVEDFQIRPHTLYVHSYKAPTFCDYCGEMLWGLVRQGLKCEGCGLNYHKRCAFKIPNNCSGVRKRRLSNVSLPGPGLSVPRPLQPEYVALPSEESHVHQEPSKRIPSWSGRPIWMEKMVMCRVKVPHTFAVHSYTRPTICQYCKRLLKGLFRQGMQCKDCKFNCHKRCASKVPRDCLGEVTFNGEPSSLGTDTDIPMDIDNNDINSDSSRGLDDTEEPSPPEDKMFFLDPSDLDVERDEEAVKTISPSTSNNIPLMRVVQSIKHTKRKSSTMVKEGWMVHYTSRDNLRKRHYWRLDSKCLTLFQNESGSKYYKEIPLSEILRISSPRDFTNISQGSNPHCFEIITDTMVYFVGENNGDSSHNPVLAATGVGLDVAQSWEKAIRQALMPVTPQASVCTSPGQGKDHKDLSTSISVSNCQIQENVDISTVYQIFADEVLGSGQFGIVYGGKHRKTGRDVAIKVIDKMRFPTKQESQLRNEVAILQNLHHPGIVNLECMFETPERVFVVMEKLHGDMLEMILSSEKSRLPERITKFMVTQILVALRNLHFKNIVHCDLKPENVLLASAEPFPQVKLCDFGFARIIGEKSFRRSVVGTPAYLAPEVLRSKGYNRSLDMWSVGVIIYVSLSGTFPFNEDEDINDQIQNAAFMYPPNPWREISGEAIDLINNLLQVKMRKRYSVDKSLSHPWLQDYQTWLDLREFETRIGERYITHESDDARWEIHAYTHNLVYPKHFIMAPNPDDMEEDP

PLK4 (human) = PLK4 (human) (UniProt O00444)
AKT2 (human) = AKT2 (human) (UniProt P31751)
ACVR1B (human) = ACVR1B (human) (UniProt P36896)
INSR (human) = INSR (human) (UniProt P06213)
ACVR2A (human) = ACVR2A (human) (UniProt P27037)
RIPK4 (human) = RIPK4 (human) (UniProt P57078)
BMPR1A (human) = BMPR1A (human) (UniProt P36894)
SIK1 (human) = SIK1 (human) (UniProt P57059)
MAP3K1 (human) = MAP3K1 (human) (UniProt Q13233)
MST4 (human) = MST4 (human) (UniProt Q9P289)
GAK (human) = GAK (human) (UniProt O14976)
CAMKK2 (human) = CAMKK2 (human) (UniProt Q96RR4)

Sequence of SGK3 (human) (Q96BR1 whole entry, looked up): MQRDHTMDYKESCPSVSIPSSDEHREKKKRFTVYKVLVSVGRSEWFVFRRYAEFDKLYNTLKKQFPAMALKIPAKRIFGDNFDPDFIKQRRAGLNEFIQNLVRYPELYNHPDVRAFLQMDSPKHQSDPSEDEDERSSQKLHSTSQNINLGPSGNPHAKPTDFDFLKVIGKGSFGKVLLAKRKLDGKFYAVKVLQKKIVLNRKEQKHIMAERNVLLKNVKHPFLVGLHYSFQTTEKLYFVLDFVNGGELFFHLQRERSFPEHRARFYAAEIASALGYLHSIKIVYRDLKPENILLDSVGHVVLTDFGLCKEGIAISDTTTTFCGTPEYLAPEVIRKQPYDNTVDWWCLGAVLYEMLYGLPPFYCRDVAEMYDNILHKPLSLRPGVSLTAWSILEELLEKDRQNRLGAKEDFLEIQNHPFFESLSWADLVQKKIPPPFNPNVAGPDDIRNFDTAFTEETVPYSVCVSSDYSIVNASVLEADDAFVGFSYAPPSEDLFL
Sequence of PIM1 (human) (P11309 whole entry, looked up): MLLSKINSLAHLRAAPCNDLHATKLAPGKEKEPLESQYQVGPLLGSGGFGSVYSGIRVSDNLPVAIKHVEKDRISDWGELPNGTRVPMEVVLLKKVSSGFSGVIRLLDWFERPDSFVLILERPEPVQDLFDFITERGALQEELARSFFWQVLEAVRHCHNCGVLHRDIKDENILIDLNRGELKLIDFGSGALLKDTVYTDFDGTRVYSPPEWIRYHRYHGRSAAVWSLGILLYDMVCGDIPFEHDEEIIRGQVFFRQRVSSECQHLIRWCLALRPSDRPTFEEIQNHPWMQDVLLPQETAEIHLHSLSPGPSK

`O=C(Nc1cccc(Nc2ncc(Br)c(NCCc3cnc[nH]3)n2)c1)N1CCCC1` gave a kinase still bound, per cent of control (PRKCE (human)) of 0%, a kinase still bound, per cent of control (EIF2AK1 (human)) of 100% and a kinase still bound, per cent of control (AURKB (human)) of 0%. For the same molecule, the kinase still bound, per cent of control (SGK3 (human)) was 91%, the kinase still bound, per cent of control [1] was 0.25% and the kinase still bound, per cent of control (PIM1 (human)) was 87%. It also gave a kinase still bound, per cent of control (PRKCH (human)) of 33%, a kinase still bound, per cent of control (FLT3 (human)) of 0% and a kinase still bound, per cent of control (GSK3B (human)) of 44%. The kinase still bound, per cent of control (MAP3K5 (human)) was 24%, the kinase still bound, per cent of control (RPS6KA2 KD1 (human)) was 7.6% and the kinase still bound, per cent of control [2] was 7%. For the same molecule, the kinase still bound, per cent of control (LATS2 (human)) was 0%, the kinase still bound, per cent of control (CHUK (human)) was 4.1% and the kinase still bound, per cent of control (CDK5 (human)) was 24%. For the same molecule, the kinase still bound, per cent of control (PAK4 (human)) was 4%, the kinase still bound, per cent of control (ALK (human)) was 14% and the kinase still bound, per cent of control (ACVR1 (human)) was 76%. For the same molecule, the kinase still bound, per cent of control (TNIK (human)) was 0.8%, the kinase still bound, per cent of control (DYRK1A (human)) was 12% and the kinase still bound, per cent of control (ERBB3 (human)) was 41%. The kinase still bound, per cent of control (DMPK (human)) was 9.1%, the kinase still bound, per cent of control (FGFR1 (human)) was 0.25% and the kinase still bound, per cent of control (PAK3 (human)) was 2.6%. For the same molecule, the kinase still bound, per cent of control (HIPK3 (human)) was 3.7%, the kinase still bound, per cent of control (NUAK1 (human)) was 0% and the kinase still bound, per cent of control (PLK3 (human)) was 20%. The kinase still bound, per cent of control (PRKD3 (human)) was 0.5%, the kinase still bound, per cent of control (PLK4 (human)) was 0.7% and the kinase still bound, per cent of control (AKT2 (human)) was 100%. For the same molecule, the kinase still bound, per cent of control (ACVR1B (human)) was 61%, the kinase still bound, per cent of control (INSR (human)) was 27% and the kinase still bound, per cent of control (ACVR2A (human)) was 6.4%. For the same molecule, the kinase still bound, per cent of control (RIPK4 (human)) was 0.3%, the kinase still bound, per cent of control (BMPR1A (human)) was 0.8% and the kinase still bound, per cent of control (SIK1 (human)) was 0.35%. It also gave a kinase still bound, per cent of control (MAP3K1 (human)) of 34%, a kinase still bound, per cent of control (MST4 (human)) of 0.4% and a kinase still bound, per cent of control (GAK (human)) of 1.4%. It also gave a kinase still bound, per cent of control (CAMKK2 (human)) of 2%.
`COc1ccc(N(C(=O)Oc2c(C)cccc2C)c2ccnc(Nc3ccc(N4CCN(C)CC4)cc3)n2)c(OC)c1` gave a kinase still bound, per cent of control (PRKCE (human)) of 27%, a kinase still bound, per cent of control (EIF2AK1 (human)) of 100% and a kinase still bound, per cent of control (AURKB (human)) of 18%. For the same molecule, the kinase still bound, per cent of control (SGK3 (human)) was 100%, the kinase still bound, per cent of control [1] was 36% and the kinase still bound, per cent of control (PIM1 (human)) was 100%. It also gave a kinase still bound, per cent of control (PRKCH (human)) of 35%, a kinase still bound, per cent of control (FLT3 (human)) of 2.3% and a kinase still bound, per cent of control (GSK3B (human)) of 72%. The kinase still bound, per cent of control (MAP3K5 (human)) was 100%, the kinase still bound, per cent of control (RPS6KA2 KD1 (human)) was 27% and the kinase still bound, per cent of control [2] was 26%. The kinase still bound, per cent of control (LATS2 (human)) was 70%, the kinase still bound, per cent of control (CHUK (human)) was 92% and the kinase still bound, per cent of control (CDK5 (human)) was 98%. For the same molecule, the kinase still bound, per cent of control (PAK4 (human)) was 97%, the kinase still bound, per cent of control (ALK (human)) was 0.35% and the kinase still bound, per cent of control (ACVR1 (human)) was 0%. It also gave a kinase still bound, per cent of control (TNIK (human)) of 37%, a kinase still bound, per cent of control (DYRK1A (human)) of 75% and a kinase still bound, per cent of control (ERBB3 (human)) of 0%. For the same molecule, the kinase still bound, per cent of control (DMPK (human)) was 0.05%, the kinase still bound, per cent of control (FGFR1 (human)) was 0.25% and the kinase still bound, per cent of control (PAK3 (human)) was 4%. It also gave a kinase still bound, per cent of control (HIPK3 (human)) of 91%, a kinase still bound, per cent of control (NUAK1 (human)) of 30% and a kinase still bound, per cent of control (PLK3 (human)) of 100%. It also gave a kinase still bound, per cent of control (PRKD3 (human)) of 11%, a kinase still bound, per cent of control (PLK4 (human)) of 37% and a kinase still bound, per cent of control (AKT2 (human)) of 100%. For the same molecule, the kinase still bound, per cent of control (ACVR1B (human)) was 1%, the kinase still bound, per cent of control (INSR (human)) was 100% and the kinase still bound, per cent of control (ACVR2A (human)) was 0.75%. It also gave a kinase still bound, per cent of control (RIPK4 (human)) of 92%, a kinase still bound, per cent of control (BMPR1A (human)) of 0.1% and a kinase still bound, per cent of control (SIK1 (human)) of 0.3%. The kinase still bound, per cent of control (MAP3K1 (human)) was 32%, the kinase still bound, per cent of control (MST4 (human)) was 33% and the kinase still bound, per cent of control (GAK (human)) was 5.6%. The kinase still bound, per cent of control (CAMKK2 (human)) was 56%.
